Reference: paper PMC5218480 (PLoS ONE, 2017)

System: MV-4-11 cells
Experiment: Gene expression microarray analysis (Affymetrix PrimeView) and GSEA
Format: cell-based, human
Parameters: RFU PODN (11730768_x_at) / Fold change /veh PODN (11730768_x_at) / RFU LINC00158 (11744669_a_at) / Fold change /veh LINC00158 (11744669_a_at) / RFU DUSP10 (11751237_a_at) / Fold change /veh DUSP10 (11751237_a_at) / RFU ID3 (11757404_x_at) / Fold change /veh ID3 (11757404_x_at) / RFU PLEKHG5 (11737974_s_at) / Fold change /veh PLEKHG5 (11737974_s_at) / RFU LRRC4B (11730491_at) / Fold change /veh LRRC4B (11730491_at) / RFU GIMAP4 (11747438_a_at) / Fold change /veh GIMAP4 (11747438_a_at) / RFU KRT8 (11758183_x_at) / Fold change /veh KRT8 (11758183_x_at) / RFU CNN1 (11734310_a_at) / Fold change /veh CNN1 (11734310_a_at) / RFU VPS37D (11726825_at) / Fold change /veh VPS37D (11726825_at) / RFU C10orf10 (11716522_x_at) / Fold change /veh C10orf10 (11716522_x_at) / RFU KIR2DL2 /// KIR2DL4 /// KIR2DL5A /// KIR2DL5B /// KIR2DS1 /// KIR2DS2 /// KIR2DS3 /// KIR2DS4 /// KIR3DL3 /// KIR3DL3 /// KIR3DS1 (11738374_at) / Fold change /veh KIR2DL2 /// KIR2DL4 /// KIR2DL5A /// KIR2DL5B /// KIR2DS1 /// KIR2DS2 /// KIR2DS3 /// KIR2DS4 /// KIR3DL3 /// KIR3DL3 /// KIR3DS1 (11738374_at) / RFU C1QL1 (11718748_at) / Fold change /veh C1QL1 (11718748_at) / RFU TMPRSS4 (11747572_a_at) / Fold change /veh TMPRSS4 (11747572_a_at) / RFU HAMP (11756126_x_at) / Fold change /veh HAMP (11756126_x_at) / RFU RNFT2 (11725882_a_at) / Fold change /veh RNFT2 (11725882_a_at) / RFU NR4A2 (11747474_a_at) / Fold change /veh NR4A2 (11747474_a_at) / RFU ABCC12 (11746883_a_at) / Fold change /veh ABCC12 (11746883_a_at) / RFU TMEM136 (11760407_x_at) / Fold change /veh TMEM136 (11760407_x_at) / RFU CLDN22 /// WWC2 (11732394_at) / Fold change /veh CLDN22 /// WWC2 (11732394_at) / RFU HLA-DPB1 (11760878_x_at) / Fold change /veh HLA-DPB1 (11760878_x_at) / RFU SPINT1 (11716480_a_at) / Fold change /veh SPINT1 (11716480_a_at) / RFU GAP43 (11754022_s_at) / Fold change /veh GAP43 (11754022_s_at) / RFU A4GNT (11735810_at) / Fold change /veh A4GNT (11735810_at) / RFU PRB3 (11715151_x_at) / Fold change /veh PRB3 (11715151_x_at) / RFU TUBB4B (11761932_at) / Fold change /veh TUBB4B (11761932_at) / RFU CAPN14 (11732068_a_at) / Fold change /veh CAPN14 (11732068_a_at) / RFU TMCC2 (11721928_a_at) / Fold change /veh TMCC2 (11721928_a_at) / RFU IRGQ (11745062_a_at) / Fold change /veh IRGQ (11745062_a_at) / RFU FAM174B (11720279_a_at) / Fold change /veh FAM174B (11720279_a_at) / RFU TMPRSS4 (11748680_a_at) / Fold change /veh TMPRSS4 (11748680_a_at) / RFU FAM212B (11763350_a_at) / Fold change /veh FAM212B (11763350_a_at) / RFU PLEKHG5 (11743358_a_at) / Fold change /veh PLEKHG5 (11743358_a_at) / RFU ZSCAN30 (11745921_a_at) / Fold change /veh ZSCAN30 (11745921_a_at) / RFU CMKLR1 (11741424_a_at) / Fold change /veh CMKLR1 (11741424_a_at) / RFU LOC101060620 /// MAPK8IP1 (11723275_at) / Fold change /veh LOC101060620 /// MAPK8IP1 (11723275_at) / RFU SPTSSB (11747773_x_at) / Fold change /veh SPTSSB (11747773_x_at) / RFU PRSS12 (11739890_at) / Fold change /veh PRSS12 (11739890_at) / RFU BIN1 (11741810_x_at) / Fold change /veh BIN1 (11741810_x_at) / RFU WNT11 (11732464_a_at) / Fold change /veh WNT11 (11732464_a_at) / RFU C10orf10 (11716521_a_at) / Fold change /veh C10orf10 (11716521_a_at) / RFU C5orf56 (11738089_at) / Fold change /veh C5orf56 (11738089_at) / RFU CYB561 (11721691_x_at) / Fold change /veh CYB561 (11721691_x_at) / RFU ANKRD19P (11752326_a_at) / Fold change /veh ANKRD19P (11752326_a_at) / RFU OR2T12 /// OR2T33 /// OR2T8 (11738714_s_at) / Fold change /veh OR2T12 /// OR2T33 /// OR2T8 (11738714_s_at) / RFU VCAN (11748164_a_at) / Fold change /veh VCAN (11748164_a_at) / RFU JSRP1 (11732532_at) / Fold change /veh JSRP1 (11732532_at) / RFU KRTAP10-11 (11738290_x_at) / Fold change /veh KRTAP10-11 (11738290_x_at) / RFU MYO3A (11730013_a_at) / Fold change /veh MYO3A (11730013_a_at) / RFU EBF3 (11725865_a_at) / Fold change /veh EBF3 (11725865_a_at) / RFU CAMK2N1 (11719241_x_at) / Fold change /veh CAMK2N1 (11719241_x_at) / RFU C5orf56 (11738088_a_at) / Fold change /veh C5orf56 (11738088_a_at) / RFU OLFML3 (11715873_a_at) / Fold change /veh OLFML3 (11715873_a_at) / RFU LOC100653217 /// NTM (11731650_a_at) / Fold change /veh LOC100653217 /// NTM (11731650_a_at) / RFU MAPK11 (11762145_a_at) / Fold change /veh MAPK11 (11762145_a_at) / RFU FIZ1 (11724087_x_at) / Fold change /veh FIZ1 (11724087_x_at) / RFU OASL (11726364_x_at) / Fold change /veh OASL (11726364_x_at) / RFU SOX15 (11748057_x_at) / Fold change /veh SOX15 (11748057_x_at) / RFU CD79A (11719716_a_at) / Fold change /veh CD79A (11719716_a_at) / RFU HIST1H1D (11736915_at) / Fold change /veh HIST1H1D (11736915_at) / RFU CASKIN2 (11723855_a_at) / Fold change /veh CASKIN2 (11723855_a_at) / RFU LOC730098 (11760151_x_at) / Fold change /veh LOC730098 (11760151_x_at) / RFU OR4N2 (11742367_at) / Fold change /veh OR4N2 (11742367_at) / RFU PRRT2 (11749266_a_at) / Fold change /veh PRRT2 (11749266_a_at) / RFU SNX32 (11753110_a_at) / Fold change /veh SNX32 (11753110_a_at) / RFU CDHR5 (11726645_a_at) / Fold change /veh CDHR5 (11726645_a_at) / RFU RCAN1 (11760418_a_at) / Fold change /veh RCAN1 (11760418_a_at) / RFU FAM167A (11723789_a_at) / Fold change /veh FAM167A (11723789_a_at) / RFU FAM26E (11764081_at) / Fold change /veh FAM26E (11764081_at) / RFU ISYNA1 (11749810_s_at) / Fold change /veh ISYNA1 (11749810_s_at) / RFU ACY1 (11761880_at) / Fold change /veh ACY1 (11761880_at) / RFU 11764098_at / Fold change /veh 11764098_at / RFU SAMD14 (11745864_x_at) / Fold change /veh SAMD14 (11745864_x_at) / RFU NPB (11741838_a_at) / Fold change /veh NPB (11741838_a_at) / RFU TMPRSS6 (11731388_a_at) / Fold change /veh TMPRSS6 (11731388_a_at) / RFU KRTAP10-2 (11738614_at) / Fold change /veh KRTAP10-2 (11738614_at) / RFU ARHGAP8 /// PRR5-ARHGAP8 (11727945_x_at) / Fold change /veh ARHGAP8 /// PRR5-ARHGAP8 (11727945_x_at) / RFU KRTAP5-7 /// NADSYN1 (11734609_at) / Fold change /veh KRTAP5-7 /// NADSYN1 (11734609_at) / RFU RASL12 (11751679_a_at) / Fold change /veh RASL12 (11751679_a_at) / RFU CDKN2B (11736163_a_at) / Fold change /veh CDKN2B (11736163_a_at) / RFU PRF1 (11729649_at) / Fold change /veh PRF1 (11729649_at) / RFU, ZNF638 /// ZNF638-IT1 / Fold change vs veh, ZNF638 /// ZNF638-IT1 / RFU, PANK3 / Fold change vs veh, PANK3 / RFU, SH3YL1 / Fold change vs veh, SH3YL1 / RFU, ZEB2 / Fold change vs veh, ZEB2 / RFU, NRIP1 / Fold change vs veh, NRIP1 / RFU, PTTG1IP / Fold change vs veh, PTTG1IP / RFU, CAPN2 / Fold change vs veh, CAPN2 / RFU, MED14 / Fold change vs veh, MED14 / RFU, SNORA58 / Fold change vs veh, SNORA58 / RFU, C1orf63 / Fold change vs veh, C1orf63 / RFU, LRRFIP1 / Fold change vs veh, LRRFIP1 / RFU, NDUFAF7 / Fold change vs veh, NDUFAF7 / RFU, SLC12A2 / Fold change vs veh, SLC12A2 / RFU, IBTK / Fold change vs veh, IBTK / RFU, ESF1 / Fold change vs veh, ESF1 / Fold change vs veh, TMEM50B / RFU, TAOK1 / Fold change vs veh, TAOK1 / RFU, ACBD3 / Fold change vs veh, ACBD3 / RFU, TMA16 / Fold change vs veh, TMA16 / RFU, RWDD3 / Fold change vs veh, RWDD3 / RFU, BCAT1 / Fold change vs veh, BCAT1 / RFU, EDEM3 / Fold change vs veh, EDEM3 / RFU, TMEM33 / Fold change vs veh, TMEM33 / RFU, WDR75 / Fold change vs veh, WDR75 / RFU, AHCTF1 / Fold change vs veh, AHCTF1 / RFU, TFRC / Fold change vs veh, TFRC / RFU, ZDHHC17 / Fold change vs veh, ZDHHC17 / RFU, NOM1 / Fold change vs veh, NOM1 / RFU, ARL8B / Fold change vs veh, ARL8B / RFU, ZBTB11 / Fold change vs veh, ZBTB11 / RFU, TAMM41 / Fold change vs veh, TAMM41 / RFU, KIAA1704 /// LOC100996395 / Fold change vs veh, KIAA1704 /// LOC100996395 / RFU, ING1 / Fold change vs veh, ING1 / RFU, TRMT61B / Fold change vs veh, TRMT61B / RFU, FUBP3 / Fold change vs veh, FUBP3 / RFU, TP53 / Fold change vs veh, TP53 / RFU, TNKS2 / Fold change vs veh, TNKS2 / RFU, ZFP14 / Fold change vs veh, ZFP14 / RFU, ACTR2 / Fold change vs veh, ACTR2 / RFU, PPP3R1 / Fold change vs veh, PPP3R1 / RFU, PIK3R1 / Fold change vs veh, PIK3R1 / RFU, HNRNPA1 / Fold change vs veh, HNRNPA1 / RFU, RNF170 / Fold change vs veh, RNF170 / RFU, ZNF28 / Fold change vs veh, ZNF28 / RFU, RNGTT / Fold change vs veh, RNGTT / RFU, OGT / Fold change vs veh, OGT / RFU, BRD1 / Fold change vs veh, BRD1 / RFU, MARS / Fold change vs veh, MARS / RFU, ZNF655 / Fold change vs veh, ZNF655 / RFU, FAHD1 / Fold change vs veh, FAHD1 / RFU, BDP1 / Fold change vs veh, BDP1 / RFU, LRRCC1 / Fold change vs veh, LRRCC1 / RFU, ARID1A / Fold change vs veh, ARID1A / RFU, ZNF146 / Fold change vs veh, ZNF146 / RFU, ZNF330 / Fold change vs veh, ZNF330 / RFU, GPN3 / Fold change vs veh, GPN3 / RFU, C9orf123 / Fold change vs veh, C9orf123 / RFU, N4BP2L2 / Fold change vs veh, N4BP2L2 / RFU, ARFIP1 / Fold change vs veh, ARFIP1 / RFU, FAM179B / Fold change vs veh, FAM179B / RFU, BCL10 / Fold change vs veh, BCL10 / RFU, UHRF1BP1L / Fold change vs veh, UHRF1BP1L / RFU, BET1 / Fold change vs veh, BET1 / RFU, CNOT2 / Fold change vs veh, CNOT2 / RFU, ZNF268 / Fold change vs veh, ZNF268 / Fold change vs veh, ZNF507 / RFU, DGCR2 / Fold change vs veh, DGCR2 / RFU, WDSUB1 / Fold change vs veh, WDSUB1 / Fold change vs veh, HSP90B1 /// MIR3652 / RFU, ADSS / Fold change vs veh, ADSS / RFU, GK / Fold change vs veh, GK / RFU, ZNF148 / Fold change vs veh, ZNF148 / RFU, TAF9 / Fold change vs veh, TAF9 / RFU, SLC1A5 / Fold change vs veh, SLC1A5 / RFU, SLMO2 / Fold change vs veh, SLMO2 / RFU, ABCC4 / Fold change vs veh, ABCC4 / RFU, LOC101060439 /// RAP1B / Fold change vs veh, LOC101060439 /// RAP1B / RFU, RFX7 / Fold change vs veh, RFX7 / RFU, GTPBP10 / Fold change vs veh, GTPBP10 / RFU, CNEP1R1 / Fold change vs veh, CNEP1R1 / RFU, BIVM-ERCC5 /// ERCC5 / Fold change vs veh, BIVM-ERCC5 /// ERCC5 / RFU, ILF3 / Fold change vs veh, ILF3 / RFU 11762660_at / Fold change /veh 11762660_at / RFU VCAN (11757783_s_at) / Fold change /veh VCAN (11757783_s_at) / RFU DDX43 (11728927_at) / Fold change /veh DDX43 (11728927_at) / RFU KRT8 (11758188_x_at) / Fold change /veh KRT8 (11758188_x_at) / RFU NKD1 (11759106_at) / Fold change /veh NKD1 (11759106_at) / RFU SRD5A1 (11742802_a_at) / Fold change /veh SRD5A1 (11742802_a_at) / RFU TPSAB1 /// TPSB2 (11721975_s_at) / Fold change /veh TPSAB1 /// TPSB2 (11721975_s_at) / RFU GSTM3 (11746129_a_at) / Fold change /veh GSTM3 (11746129_a_at) / RFU IL23R (11737362_x_at) / Fold change /veh IL23R (11737362_x_at) / RFU TMEM51 (11727254_a_at) / Fold change /veh TMEM51 (11727254_a_at) / RFU PIWIL2 (11732686_x_at) / Fold change /veh PIWIL2 (11732686_x_at) / RFU ORM1 (11744905_x_at) / Fold change /veh ORM1 (11744905_x_at) / RFU CCDC152 (11743942_at) / Fold change /veh CCDC152 (11743942_at) / RFU ECM1 (11717891_a_at) / Fold change /veh ECM1 (11717891_a_at) / RFU IL23R (11748794_a_at) / Fold change /veh IL23R (11748794_a_at) / RFU TNFAIP8L3 (11732012_x_at) / Fold change /veh TNFAIP8L3 (11732012_x_at) / RFU MBOAT4 (11741988_at) / Fold change /veh MBOAT4 (11741988_at) / RFU 11764193_at / Fold change /veh 11764193_at / RFU TMEM53 (11763286_at) / Fold change /veh TMEM53 (11763286_at) / RFU MAGEB2 (11727129_at) / Fold change /veh MAGEB2 (11727129_at) / RFU TMEM200A (11744735_a_at) / Fold change /veh TMEM200A (11744735_a_at) / RFU CCDC152 (11751479_a_at) / Fold change /veh CCDC152 (11751479_a_at) / RFU FAM211A (11726209_a_at) / Fold change /veh FAM211A (11726209_a_at) / RFU RGS16 (11746705_a_at) / Fold change /veh RGS16 (11746705_a_at) / RFU VCAN (11755009_s_at) / Fold change /veh VCAN (11755009_s_at) / RFU RHOB (11743442_s_at) / Fold change /veh RHOB (11743442_s_at) / RFU RGS16 (11720943_a_at) / Fold change /veh RGS16 (11720943_a_at) / RFU RGS16 (11720944_at) / Fold change /veh RGS16 (11720944_at) / RFU, VPS4B / Fold change vs veh, VPS4B / RFU, CREB1 / Fold change vs veh, CREB1 / RFU, DNAJC13 / Fold change vs veh, DNAJC13 / RFU, GNAQ / Fold change vs veh, GNAQ / RFU, CDK5R1 / Fold change vs veh, CDK5R1 / RFU, ZRANB3 / Fold change vs veh, ZRANB3 / RFU, CUL4A / Fold change vs veh, CUL4A / RFU, CCNY / Fold change vs veh, CCNY / RFU, UFL1 / Fold change vs veh, UFL1 / RFU, COG3 / Fold change vs veh, COG3 / RFU, DIAPH2 / Fold change vs veh, DIAPH2 / RFU, SKA2 / Fold change vs veh, SKA2 / RFU, AFF3 / Fold change vs veh, AFF3 / RFU, LMF1 / Fold change vs veh, LMF1 / RFU, IPO11 / Fold change vs veh, IPO11 / RFU, DFFB / Fold change vs veh, DFFB / RFU, FOXP1 / Fold change vs veh, FOXP1 / RFU, CARD8 / Fold change vs veh, CARD8 / RFU, STRN3 / Fold change vs veh, STRN3 / RFU, ADK / Fold change vs veh, ADK / RFU, RASSF2 / Fold change vs veh, RASSF2 / RFU, WIPF1 / Fold change vs veh, WIPF1 / RFU, LARP1B / Fold change vs veh, LARP1B / RFU, RASA1 / Fold change vs veh, RASA1 / RFU, RB1 / Fold change vs veh, RB1 / RFU, PPFIA1 / Fold change vs veh, PPFIA1 / RFU, MAT2A / Fold change vs veh, MAT2A / RFU, CCT5 / Fold change vs veh, CCT5 / RFU, WDR92 / Fold change vs veh, WDR92 / RFU, CUX1 / Fold change vs veh, CUX1 / RFU, TTC7A / Fold change vs veh, TTC7A / RFU, TMEM135 / Fold change vs veh, TMEM135 / RFU, DEPTOR / Fold change vs veh, DEPTOR / RFU, CPM / Fold change vs veh, CPM / RFU, DNAJB6 / Fold change vs veh, DNAJB6 / RFU, CACNA2D3 / Fold change vs veh, CACNA2D3 / RFU, DTX4 / Fold change vs veh, DTX4 / RFU, TFCP2 / Fold change vs veh, TFCP2 / RFU, GMCL1 /// GMCL1P1 / Fold change vs veh, GMCL1 /// GMCL1P1 / RFU, AEBP2 / Fold change vs veh, AEBP2 / RFU, SNHG1 /// SNORD22 /// SNORD25 /// SNORD26 /// SNORD27 /// SNORD28 /// SNORD29 /// SNORD31 / Fold change vs veh, SNHG1 /// SNORD22 /// SNORD25 /// SNORD26 /// SNORD27 /// SNORD28 /// SNORD29 /// SNORD31 / Fold change (Aza/veh), C12orf56 (ProbeSet 11735607_a_at) / Fold change (ACY-1035/veh), C12orf56 (ProbeSet 11735607_a_at) / Fold change (Aza/veh), FGFR1OP (ProbeSet 11751329_s_at) / Fold change (ACY-1035/veh), FGFR1OP (ProbeSet 11751329_s_at) / Fold change (Aza/veh), VPS36 (ProbeSet 11739960_a_at) / Fold change (ACY-1035/veh), VPS36 (ProbeSet 11739960_a_at) / RFU SYPL1 (11715823_x_at) / Fold change /veh SYPL1 (11715823_x_at) / RFU IGFBP7 (11715501_s_at) / Fold change /veh IGFBP7 (11715501_s_at) / RFU REEP3 (11722064_at) / Fold change /veh REEP3 (11722064_at) / RFU IGLL1 (11728026_x_at) / Fold change /veh IGLL1 (11728026_x_at): dose or concentration left out as unconfirmed
Settings: ProbeSet 11717702_a_at; LIST D

Nc1ncn([C@@H]2O[C@H](CO)[C@@H](O)[C@H]2O)c(=O)n1 [azacitidine]
Fold change vs veh, RB1: 0.73
